According to US4704464A, “Tumor retarding (1-benzyl-ethylenediamine)-platin (II)-complexes” (ASTA-Werke Aktiengesellschaft Chemische Fabrik, priority 1985, dated 1987):

Test: solubility
Assay type: physicochemical
Settings: Example 37 complexes

In the case of “D,L-dibenzenesulfonate-(1-benzylethylenediamine)-platinum II [dibenzenesulfonate complexes]”, the water solubility is reported as “good water solubility”.
